Reference: patent US20230085307A1, “PYRIDAZINONE COMPOUND AND HERBICIDE” (NISSAN CHEMICAL CORPORATION, priority 2019, published 2023)

Experiments:
late watergrass [1] = assay: Test Example 1: herbicidal activity, application before weed generation under submerged conditions (Table 16, symbol A); format: in vivo, late watergrass (Echinochloa oryzicola); conditions: 320 g/ha applied herbicide
Method in brief: (§1)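 Submerged Wagner pots (alluvial soil, 4 cm water) sown with weed seeds and planted with 2.5-leaf rice seedlings; emulsifiable concentrate diluted in water applied to water surface on sowing day. Held in greenhouse at 25-30 °C; injury scored 0-5 by herbicidal rate after three weeks.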

Japanese bulrush = assay: Test Example 1: herbicidal activity, application before weed generation under submerged conditions (Table 16, symbol B); format: in vivo, Japanese bulrush (Schoenoplectus juncoides); conditions: 320 g/ha applied herbicide
Method in brief: as §1

late watergrass [2] = assay: Test Example 2: herbicidal activity, application during weed generation under submerged conditions (Table 17, symbol A); format: in vivo, late watergrass (Echinochloa oryzicola); conditions: AAH 320 g/ha; application during weed generation, submerged conditions
Method in brief: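 Wagner pot, alluvial soil, 4 cm flood; mixed sowing of all species; greenhouse 25° C.–30° C. Emulsifiable formulation, water-diluted to predetermined dose, applied to paddy water at 1–2 leaf stage. Effect rated at 3 wk using the earlier test's scoring criteria.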

Chinese sprangletop = assay: Test Example 3: herbicidal effect by foliage application, Wagner pot (Table 18, symbol D); format: in vivo, chinese sprangletop (Leptochloa chinensis); conditions: 320 g/ha
Method in brief: (§2)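 Plants were sown in alluvial soil held under 0.1–0.5 cm standing water and grown 14 days in a greenhouse at 25–30 °C. An emulsifiable formulation, water-diluted to the set dose, was then sprayed onto the foliage, and effects were scored three weeks later using previously defined criteria.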

rice flat sedge = assay: Test Example 3: herbicidal effect by foliage application, Wagner pot (Table 18, symbol E); format: in vivo, rice flat sedge (Cyperus iria); conditions: 320 g/ha
Method in brief: as §2

southern crabgrass = assay: Test Example 4: herbicidal effect by soil treatment (Table 19, symbol F); format: in vivo, southern crabgrass (Digitaria ciliaris); conditions: AAH 320 g/ha
Method in brief: (§3)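 Pre-emergence style soil spray: seeds under ~1.5 cm sterilized diluvial soil received a uniform coat of emulsion diluted to the predetermined herbicide amount. Greenhouse 25–30° C; readout at week three on previously defined criteria.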

wild oat [3] = assay: Test Example 4: herbicidal effect by soil treatment (Table 19, symbol I); format: in vivo, wild oat (Avena fatua); conditions: AAH 320 g/ha
Method in brief: as §3

Italian ryegrass [4] = assay: Test Example 4: herbicidal effect by soil treatment (Table 19, symbol K); format: in vivo, Italian ryegrass (Lolium multiflorum); conditions: AAH 320 g/ha
Method in brief: as §3

windgrass = assay: Test Example 4: herbicidal effect by soil treatment (Table 19, symbol L); format: in vivo, windgrass (Apera spica-venti); conditions: AAH 320 g/ha
Method in brief: as §3

lambsquarters = assay: Test Example 4: herbicidal effect by soil treatment (Table 19, symbol O); format: in vivo, lambsquarters (Chenopodium album); conditions: AAH 320 g/ha
Method in brief: as §3

chickweed = assay: Test Example 4: herbicidal effect by soil treatment (Table 19, symbol P); format: in vivo, common chickweed (Stellaria media); conditions: AAH 320 g/ha
Method in brief: as §3

green foxtail = assay: Test Example 5: herbicidal effect by foliage application, plastic box (Table 20, symbol G); format: in vivo, green foxtail (Setaria viridis); conditions: foliage application, AAH 320 g/ha, three weeks after application
Method in brief: (§4)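 Plants were sown into sterilized diluvial soil under about 1.5 cm cover and kept in a greenhouse at 25° C. to 30° C. Fourteen days on, foliage received an even spray of the diluted emulsion. Herbicidal or crop effect was judged three weeks afterwards.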

barnyard grass = assay: Test Example 5: herbicidal effect by foliage application, plastic box (Table 20, symbol H); format: in vivo, barnyard grass (Echinochloa crus-galli); conditions: foliage application, AAH 320 g/ha, three weeks after application
Method in brief: as §4

wild oat [5] = assay: Test Example 5: herbicidal effect by foliage application, plastic box (Table 20, symbol I); format: in vivo, wild oat (Avena fatua); conditions: foliage application, AAH 320 g/ha, three weeks after application
Method in brief: as §4

blackgrass = assay: Test Example 5: herbicidal effect by foliage application, plastic box (Table 20, symbol J); format: in vivo, blackgrass (Alopecurus myosuroides); conditions: foliage application, AAH 320 g/ha, three weeks after application
Method in brief: as §4

Italian ryegrass [6] = assay: Test Example 5: herbicidal effect by foliage application, plastic box (Table 20, symbol K); format: in vivo, Italian ryegrass (Lolium multiflorum); conditions: foliage application, AAH 320 g/ha, three weeks after application
Method in brief: as §4

velvetleaf = assay: Test Example 5: herbicidal effect by foliage application, plastic box (Table 20, symbol M); format: in vivo, velvetleaf (Abutilon theophrasti); conditions: foliage application, AAH 320 g/ha, three weeks after application
Method in brief: as §4

Row | Structure (SMILES) | Herbicidal effect on A: late watergrass (grade 0-5) (late watergrass [1]) | Herbicidal effect on B: Japanese bulrush (grade 0-5) (Japanese bulrush) | herbicidal effect rating, A: late watergrass (late watergrass [2]) | herbicidal effect on D (Chinese sprangletop), rating 0-5 (Chinese sprangletop) | herbicidal effect on E (rice flat sedge), rating 0-5 (rice flat sedge) | F: southern crabgrass, herbicidal effect rating (southern crabgrass) | I: wild oat, herbicidal effect rating (wild oat [3]) | K: Italian ryegrass, herbicidal effect rating (Italian ryegrass [4]) | L: windgrass, herbicidal effect rating (windgrass) | O: lambsquarters, herbicidal effect rating (lambsquarters) | P: chickweed, herbicidal effect rating (chickweed) | G: green foxtail, herbicidal effect (green foxtail) | H: barnyard grass, herbicidal effect (barnyard grass) | I: wild oat, herbicidal effect (wild oat [5]) | J: blackgrass, herbicidal effect (blackgrass) | K: Italian ryegrass, herbicidal effect (Italian ryegrass [6]) | M: velvetleaf, herbicidal effect (velvetleaf)
1 | Cc1nn(C)c(=O)c(-c2c(-c3ccc(OCc4ccccc4)cc3)sc3ccccc23)c1O [1-133] | 5 (Herbicidal rate of 90% or more (almost completely withered)) | 5 (Herbicidal rate of 90% or more (almost completely withered)) | 1 (Herbicidal rate of 5% or more and less than 20%) | 3 (Herbicidal rate of 40% or more and less than 70%) | 5 (Herbicidal rate of 90% or more (almost completely withered)) | 2 (Herbicidal rate of 20% or more and less than 40%) | 0 (Herbicidal rate of 5% or less (almost no effect)) | 0 (Herbicidal rate of 5% or less (almost no effect)) | 0 (Herbicidal rate of 5% or less (almost no effect)) | 1 (Herbicidal rate of 5% or more and less than 20%) | 0 (Herbicidal rate of 5% or less (almost no effect)) | 5 (Herbicidal rate of 90% or more (almost completely withered)) | 5 (Herbicidal rate of 90% or more (almost completely withered)) | 0 (Herbicidal rate of 5% or less (almost no effect)) | 1 (Herbicidal rate of 5% or more and less than 20%) | 1 (Herbicidal rate of 5% or more and less than 20%) | 0 (Herbicidal rate of 5% or less (almost no effect))
2 | Cc1nn(C)c(=O)c(-c2c(-c3ccc(OCC4CC4(F)F)cc3)sc3ccccc23)c1O (centres unmarked) [1-138] | 3 (Herbicidal rate of 40% or more and less than 70%) | 3 (Herbicidal rate of 40% or more and less than 70%) | 0 (Herbicidal rate of 5% or less (almost no effect)) | 3 (Herbicidal rate of 40% or more and less than 70%) | 5 (Herbicidal rate of 90% or more (almost completely withered)) | 0 (Herbicidal rate of 5% or less (almost no effect)) | 0 (Herbicidal rate of 5% or less (almost no effect)) | 5 (Herbicidal rate of 90% or more (almost completely withered)) | 0 (Herbicidal rate of 5% or less (almost no effect)) | 5 (Herbicidal rate of 90% or more (almost completely withered)) | 4 (Herbicidal rate of 70% or more and less than 90%) | 3 (Herbicidal rate of 40% or more and less than 70%) | 5 (Herbicidal rate of 90% or more (almost completely withered)) | 0 (Herbicidal rate of 5% or less (almost no effect)) | 5 (Herbicidal rate of 90% or more (almost completely withered)) | 5 (Herbicidal rate of 90% or more (almost completely withered)) | 4 (Herbicidal rate of 70% or more and less than 90%)
3 | CSCCOc1ccc(-c2sc3ccccc3c2-c2c(O)c(C)nn(C)c2=O)cc1 [1-141] | 3 (Herbicidal rate of 40% or more and less than 70%) | 0 (Herbicidal rate of 5% or less (almost no effect)) | 0 (Herbicidal rate of 5% or less (almost no effect)) | 3 (Herbicidal rate of 40% or more and less than 70%) | 5 (Herbicidal rate of 90% or more (almost completely withered)) | 4 (Herbicidal rate of 70% or more and less than 90%) | 0 (Herbicidal rate of 5% or less (almost no effect)) | 5 (Herbicidal rate of 90% or more (almost completely withered)) | 3 (Herbicidal rate of 40% or more and less than 70%) | 5 (Herbicidal rate of 90% or more (almost completely withered)) | 4 (Herbicidal rate of 70% or more and less than 90%) | 5 (Herbicidal rate of 90% or more (almost completely withered)) | 5 (Herbicidal rate of 90% or more (almost completely withered)) | 5 (Herbicidal rate of 90% or more (almost completely withered)) | 5 (Herbicidal rate of 90% or more (almost completely withered)) | 5 (Herbicidal rate of 90% or more (almost completely withered)) | 4 (Herbicidal rate of 70% or more and less than 90%)
4 | Cc1nn(C)c(=O)c(-c2c(-c3ccc(OCC4CC4)cc3)sc3ccccc23)c1O [1-142] | 3 (Herbicidal rate of 40% or more and less than 70%) | 5 (Herbicidal rate of 90% or more (almost completely withered)) | 0 (Herbicidal rate of 5% or less (almost no effect)) | 1 (Herbicidal rate of 5% or more and less than 20%) | 5 (Herbicidal rate of 90% or more (almost completely withered)) | 0 (Herbicidal rate of 5% or less (almost no effect)) | 0 (Herbicidal rate of 5% or less (almost no effect)) | 0 (Herbicidal rate of 5% or less (almost no effect)) | 0 (Herbicidal rate of 5% or less (almost no effect)) | 5 (Herbicidal rate of 90% or more (almost completely withered)) | 2 (Herbicidal rate of 20% or more and less than 40%) | 2 (Herbicidal rate of 20% or more and less than 40%) | 3 (Herbicidal rate of 40% or more and less than 70%) | 0 (Herbicidal rate of 5% or less (almost no effect)) | 0 (Herbicidal rate of 5% or less (almost no effect)) | 0 (Herbicidal rate of 5% or less (almost no effect)) | 1 (Herbicidal rate of 5% or more and less than 20%)
